Columns and labels:
[1] = system: HEK293 tau-BiFC cells; assay type: cell-based; details: for level of tau phosphorylation: HEK293 Tau-BiFC cell line, FIG. 5b; for tau accumulation (tau-BiFC): HEK293 tau-BiFC, FIG. 5
Description: (§1) The establishment of the HEK293/tau-BiFC cell line was previously described (Tak H, Hague M M, Kim M J, Lee J H, Baik J H, Kim Y et al. Himolecular fluorescence complementation; lighting-up Tau-Tau interaction in living cells. PLOS One 2013; 8: e81682). Venus fluorescence protein amino-terminal fragment (VN 173) and carboxyl-terminal fragment (VC 155), which are independently non-fluorescent, were fused to full-length tau proteins. For neuronal cell expression, tau-BiFC constructs (pCMV6-hTau40-VN173 and pCMV6-hTau-VC155) were transfected into SH-SY5Y. SH-SY5Y/tau-BiFC stable cells were selected using Geneticin (200 μg/ml). […] All established cell lines were grown in Dulbecco's modified eagle medium containing 10% fetal bovine serum, […] and 1 μg/ml of Geneticin at 37° C. in a humidified atmosphere containing 5% CO2.
(§2) For microscopic image analysis, HEK293 tau-BiFC and SH-SY5Y tau-BiFC cells were plated onto a black 384-well plate. The next day, tau-BiFC cells were treated with okadaic acid (O8010, Sigma), cyclosporine A (C3662, Sigma) or deltamethrin (D9315, Sigma) at various concentrations. After incubation for 29 hours, the plate was imaged using the Operetta® high contents imaging system (PerkinElmer). The cellular intensities of tau-BiFC fluorescence were analyzed using the Harmony® 3.1 analysis software. Each experiment was performed in triplicate. The bar graphs for BiFC intensity indicate the means ±SEM from three independent experiments.

[2] = system: SH-SY5Y tau-BiFC cells; assay type: cell-based; details: for level of tau phosphorylation: SH-SY5Y Tau-BiFC cell line, FIG. 5b; for dose dependence of tau phosphorylation level: SH-SY5Y Tau-BiFC, various concentrations, 29 hours, FIG. 5c; for tau accumulation (tau-BiFC): SH-SY5Y tau-BiFC, FIG. 5
Description: as §1, §2

[3] = target: T1, PP2B (Homo sapiens, UniProt Q08209); details: by binding to cyclophilin or FKBP respectively; cited from earlier work
T1 construct: endogenous in cells; host or cells: SH-SY5Y/tau-BiFC and HEK293/tau-BiFC cells

Row | Compound | level of tau phosphorylation [1] | tau accumulation (tau-BiFC) [1] | level of tau phosphorylation [2] | dose dependence of tau phosphorylation level [2] | tau accumulation (tau-BiFC) [2] | intensity of tau phosphorylation ([1]; HEK 293 cell line, FIG. 5d) | enzyme activity inhibition [3]
1 | CC1(C)[C@H](C(=O)O[C@H](C#N)c2cccc(Oc3ccccc3)c2)[C@@H]1C=C(Br)Br [deltamethrin] | increased | increase of tau accumulation | increased | declining trend after the threshold of 3 μM | increase of tau accumulation |  | 
2 | C=C1[C@@H](O)[C@@H]2O[C@]3(CC[C@H](/C=C/[C@@H](C)[C@@H]4CC(C)=C[C@@]5(O[C@H](C[C@@](C)(O)C(=O)O)CC[C@H]5O)O4)O3)CC[C@H]2O[C@@H]1[C@@H](O)C[C@H](C)[C@H]1O[C@@]2(CCCCO2)CC[C@H]1C [okadaic acid] | increased | increase of tau accumulation | increased | elevated the level of tau phosphorylation in a dose-dependent manner | increase of tau accumulation | higher intensity of tau phosphorylation | 
3 | cyclosporine A | increased | increase of tau accumulation | increased | elevated the level of tau phosphorylation in a dose-dependent manner | increase of tau accumulation |  | inhibits specifically enzyme activity

From patent US20180282735A1, “PHARMACEUTICAL COMPOSITION FOR NEURODEGENERATIVE BRAIN DISEASE AND SCREENING METHOD FOR THE SAME” (MACROGEN, INC., priority 2017, published 2018)
